Biological target: CD73 (Homo sapiens (Human), UniProt P21589)
Assay: Biochemical assay: inhibition of CD73 activity (AMP hydrolysis, Malachite Green readout)
Conditions: CD73 0.3208 nM, AMP 15 μM, 25 mM Tris-HCl pH 7.4, RT, absorbance 620 nm
Protocol: Example A1: Biochemical Assay
Assay Reaction Conditions
• Assay Volume: 70 μl • Reaction Volume: 50 μl • CD73: 0.3208 nM • AMP: 15 μM • Assay Buffer: 25 mM Tris-HCL, pH 7.4, 0.01% Brij-35, 0.01% BSA, 5 mM MgCl2 Assay Procedure:
Made dose titration of testing compounds in assay buffer, 10 points ½ log titrations in duplicates starting at 100 μM.
Added 25 μl of CD73 to each well for a final concentration of 320 pM.
Incubated at RT for 15 min.
Added 25 μl of AMP to each well for a final concentration of 15 μM.
Incubated at RT for 10 min.
Added 10 μl of Malachite Green Reagent A, incubate at RT for 10 min.
Added 10 of Malachite Green Reagent B, incubate at RT for 45 min.
Read the Absorbance on Envision plate reader using excitation filter: Cy5 […].
The ability of the compounds disclosed herein to inhibit CD73 activity was quantified and the respective IC50 values were determined. Table 2 provides the biochemical IC50 values of compounds disclosed herein.

Sequence of CD73 (P21589 27-574): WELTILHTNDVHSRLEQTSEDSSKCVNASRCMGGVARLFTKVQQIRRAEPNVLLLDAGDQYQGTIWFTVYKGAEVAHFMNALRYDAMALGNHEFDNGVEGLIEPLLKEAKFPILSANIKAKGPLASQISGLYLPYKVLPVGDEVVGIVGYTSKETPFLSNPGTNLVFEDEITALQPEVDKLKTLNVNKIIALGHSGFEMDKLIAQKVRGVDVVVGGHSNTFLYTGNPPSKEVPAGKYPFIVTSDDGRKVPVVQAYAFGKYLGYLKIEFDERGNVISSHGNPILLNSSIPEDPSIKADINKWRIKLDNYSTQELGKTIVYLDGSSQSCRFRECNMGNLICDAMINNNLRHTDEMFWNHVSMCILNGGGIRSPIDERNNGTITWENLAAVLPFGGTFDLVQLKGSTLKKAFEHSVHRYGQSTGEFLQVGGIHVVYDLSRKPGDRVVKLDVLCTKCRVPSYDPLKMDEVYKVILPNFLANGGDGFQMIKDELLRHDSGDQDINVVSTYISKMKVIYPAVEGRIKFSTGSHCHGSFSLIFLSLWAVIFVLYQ

IC50 [nM] | SMILES
≤ 100 | O=P(O)(O)C(CO)(COCC(F)(F)F)OC[C@H]1O[C@@H](n2ncc3c(NC4CCCC4)nc(Cl)nc32)[C@H](O)[C@@H]1O (mixture of isomers) [Example 207, rac-(2-(((2R,3S,4R,5R)-5-(6-chloro-4-(cyclopentylamino)-1H-pyrazolo[3,4-d]pyrimidin-1-yl)-3,4-dihydroxytetrahydrofuran-2-yl)methoxy)-1-hydroxy-3-(2,2,2-trifluoroethoxy)propan-2-yl)phosphonic acid]
≤ 100 | O=P(O)(O)C(CO)(CO)OC[C@H]1O[C@@H](n2ncc3c(N[C@@H]4CCc5cc(F)ccc54)nc(Cl)nc32)[C@H](O)[C@@H]1O (racemic) [Example 176, rac-(2-(((2R,3S,4R,5R)-5-(6-chloro-4-(((R)-5-fluoro-2,3-dihydro-1H-inden-1-yl)amino)-1H-pyrazolo[3,4-d]pyrimidin-1-yl)-3,4-dihydroxytetrahydrofuran-2-yl)methoxy)-1,3-dihydroxypropan-2-yl)phosphonic acid]
≤ 100 | COCC(OC[C@H]1O[C@@H](n2nnc3c(NC4CCCC4)nc(Cl)nc32)[C@H](O)[C@@H]1O)P(=O)(O)O (stereo partly drawn) [Example 142, (1-(((2R,3S,4R,5R)-5-(5-chloro-7-(cyclopentylamino)-3H-[1,2,3]triazolo[4,5-d]pyrimidin-3-yl)-3,4-dihydroxytetrahydrofuran-2-yl)methoxy)-2-methoxyethyl)phosphonic acid]
≤ 100 | O=P(O)(O)CS(=O)(=O)C[C@H]1O[C@@H](n2ncc3c(NC4CCCC4)cc(Cl)nc32)[C@H](O)[C@@H]1O [Example 162, (((((2S,3S,4R,5R)-5-(6-chloro-4-(cyclopentylamino)-1H-pyrazolo[3,4-b]pyridin-1-yl)-3,4-dihydroxytetrahydrofuran-2-yl)methyl)sulfonyl)methyl)phosphonic acid]
≤ 100 | COCCOCC(COCCO)(OC[C@H]1O[C@@H](n2ncc3c(NC4CCCC4)nc(Cl)nc32)[C@H](O)[C@@H]1O)P(=O)(O)O (mixture of isomers) [Example 177, rac-(2-(((2R,3S,4R,5R)-5-(6-chloro-4-(cyclopentylamino)-1H-pyrazolo[3,4-d]pyrimidin-1-yl)-3,4-dihydroxytetrahydrofuran-2-yl)methoxy)-1-(2-hydroxyethoxy)-3-(2-methoxyethoxy)propan-2-yl)phosphonic acid]
≤ 100 | O=P(O)(O)[C@](CO)(Cc1nn[nH]n1)OC[C@H]1O[C@@H](n2ncc3c(NC4CCC4)nc(Cl)nc32)[C@H](O)[C@@H]1O (racemic) [Example 214, rac-((R)-2-(((2S,3R,4S,5S)-5-(6-chloro-4-(cyclobutylamino)-1H-pyrazolo[3,4-d]pyrimidin-1-yl)-3,4-dihydroxytetrahydrofuran-2-yl)methoxy)-1-hydroxy-3-(2H-tetrazol-5-yl)propan-2-yl)phosphonic acid]
≤ 100 | O=P(O)(O)C(CO)(COCC(F)(F)F)OC[C@H]1O[C@@H](n2ncc3c(NC4CCCC4)nc(Cl)nc32)[C@H](O)[C@@H]1O (mixture of isomers) [Example 208, rac-(2-(((2R,3S,4R,5R)-5-(6-chloro-4-(cyclopentylamino)-1H-pyrazolo[3,4-d]pyrimidin-1-yl)-3,4-dihydroxytetrahydrofuran-2-yl)methoxy)-1-hydroxy-3-(2,2,2-trifluoroethoxy)propan-2-yl)phosphonic acid]

Further lines, the compound ahead of its results:

SMILES | IC50 [nM]
CC(C)OC[C@](CO)(OC[C@H]1O[C@@H](n2ncc3c(NC4CCCC4)nc(Cl)nc32)[C@H](O)[C@@H]1O)P(=O)(O)O [Example 114, ((R)-2-(((2R,3S,4R,5R)-5-(6-chloro-4-(cyclopentylamino)-1H-pyrazolo[3,4-d]pyrimidin-1-yl)-3,4-dihydroxytetrahydrofuran-2-yl)methoxy)-1-hydroxy-3-isopropoxypropan-2-yl)phosphonic acid] | ≤ 100
C[C@@](Cc1nn[nH]n1)(OC[C@H]1O[C@@H](n2ncc3c(NC4CCCC4)nc(Cl)nc32)[C@H](O)[C@@H]1O)P(=O)(O)O [Example 119, ((R)-2-(((2R,3S,4R,5R)-5-(6-chloro-4-(cyclopentylamino)-1H-pyrazolo[3,4-d]pyrimidin-1-yl)-3,4-dihydroxytetrahydrofuran-2-yl)methoxy)-1-(2H-tetrazol-5-yl)propan-2-yl)phosphonic acid] | ≤ 100
CC(CCO)(OC[C@H]1O[C@@H](n2ncc3c(NC4CCCC4)nc(Cl)nc32)[C@H](O)[C@@H]1O)P(=O)(O)O (stereo partly drawn) [Example 56, (2-(((2R,3S,4R,5R)-5-(6-Chloro-4-(cyclopentylamino)-1H-pyrazolo[3,4-d]pyrimidin-1-yl)-3,4-dihydroxytetrahydrofuran-2-yl)methoxy)-4-hydroxybutan-2-yl)phosphonic acid] | ≤ 100
O=P(O)(O)C(CO)(CCO)OC[C@H]1O[C@@H](n2ncc3c(NC4CCCC4)nc(Br)nc32)[C@H](O)[C@@H]1O (stereo partly drawn) [Example 37, (2-(((2R,3S,4R,5R)-5-(6-bromo-4-(cyclopentylamino)-1H-pyrazolo[3,4-d]pyrimidin-1-yl)-3,4-dihydroxytetrahydrofuran-2-yl)methoxy)-1,4-dihydrobutan-2-yl)phosphonic acid] | ≤ 100
O=P(O)(O)C(CO)OC[C@H]1O[C@@H](n2ncc3c(NCC4CC4)nc(Cl)nc32)[C@H](O)[C@@H]1O (stereo partly drawn) [Example 30, (1-(((2R,3S,4R,5R)-5-(6-chloro-4-((cyclopropylmethyl)amino)-1H-pyrazolo[3,4-d]pyrimidin-1-yl)-3,4-dihydroxytetrahydrofuran-2-yl)methoxy)-2-hydroxyethyl)phosphonic acid] | ≤ 100
O=P(O)(O)C(CO)OC[C@H]1O[C@@H](n2cnc3c(NC4CCCC4)nc(Cl)nc32)[C@H](O)[C@@H]1O (stereo partly drawn) [Example 75, (1-(((2R,3S,4R,5R)-5-(2-chloro-6-(cyclopentylamino)-9H-purin-9-yl)-3,4-dihydroxytetrahydrofuran-2-yl)methoxy)-2-hydroxyethyl)phosphonic acid] | ≤ 100
CCP(=O)(O)C(CO)(CO)OC[C@H]1O[C@@H](n2ncc3c(NC4CCCC4)nc(Cl)nc32)[C@H](O)[C@@H]1O [Example 112, (2-(((2R,3S,4R,5R)-5-(6-chloro-4-(cyclopentylamino)-1H-pyrazolo[3,4-d]pyrimidin-1-yl)-3,4-dihydroxytetrahydrofuran-2-yl)methoxy)-1,3-dihydroxypropan-2-yl)(ethyl)phosphinic acid] | 100 to 1000
COC[C@](C)(OC[C@H]1O[C@@H](n2nnc3c(NC4CCCC4)nc(Cl)nc32)[C@H](O)[C@@H]1O)P(=O)(O)O [Example 110, ((R)-2-(((2R,3S,4R,5R)-5-(5-chloro-7-(cyclopentylamino)-3H-[1,2,3]triazolo[4,5-d]pyrimidin-3-yl)-3,4-dihydroxytetrahydrofuran-2-yl)methoxy)-1-methoxypropan-2-yl)phosphonic acid] | ≤ 100
COC[C@@](C)(OC[C@H]1O[C@@H](n2nnc3c(NC4CCCC4)nc(Cl)nc32)[C@H](O)[C@@H]1O)P(=O)(O)O [Example 109, ((S)-2-(((2R,3S,4R,5R)-5-(5-chloro-7-(cyclopentylamino)-3H-[1,2,3]triazolo[4,5-d]pyrimidin-3-yl)-3,4-dihydroxytetrahydrofuran-2-yl)methoxy)-1-methoxypropan-2-yl)phosphonic acid] | ≤ 100
COC[C@@](C)(OC[C@H]1O[C@@H](n2ncc3c(NCC4CC4)nc(Cl)nc32)[C@H](O)[C@@H]1O)P(=O)(O)O [Example 129, ((S)-2-(((2R,3S,4R,5R)-5-(6-chloro-4-((cyclopropylmethyl)amino)-1H-pyrazolo[3,4-d]pyrimidin-1-yl)-3,4-dihydroxytetrahydrofuran-2-yl)methoxy)-1-methoxypropan-2-yl)phosphonic acid] | ≤ 100
CCS(=O)(=O)C[C@@](C)(OC[C@H]1O[C@@H](n2ncc3c(NC4CCCC4)nc(Cl)nc32)[C@H](O)[C@@H]1O)P(=O)(O)O [Example 138, ((S)-2-(((2R,3S,4R,5R)-5-(6-chloro-4-(cyclopentylamino)-1H-pyrazolo[3,4-d]pyrimidin-1-yl)-3,4-dihydroxytetrahydrofuran-2-yl)methoxy)-1-(ethylsulfonyl)propan-2-yl)phosphonic acid] | ≤ 100
CC(OC[C@H]1O[C@@H](n2ncc3c(NC4CCCC4)nc(Cl)nc32)[C@H](O)[C@@H]1O)P(=O)(O)O (stereo partly drawn) [Example 5, (1-(((2R,3S,4R,5R)-5-(6-Chloro-4-(cyclopentylamino)-1H-pyrazolo[3,4-d]pyrimidin-1-yl)-3,4-dihydroxytetrahydrofuran-2-yl)methoxy)ethyl)phosphonic acid] | ≤ 100
C[C@@](COCCO)(OC[C@H]1O[C@@H](n2ncc3c(NC4CCCC4)nc(Cl)nc32)[C@H](O)[C@@H]1O)P(=O)(O)O [Example 124, ((R)-2-(((2R,3S,4R,5R)-5-(6-chloro-4-(cyclopentylamino)-1H-pyrazolo[3,4-d]pyrimidin-1-yl)-3,4-dihydroxytetrahydrofuran-2-yl)methoxy)-1-(2-hydroxyethoxy)propan-2-yl)phosphonic acid] | ≤ 100
C[C@@](CO)(OC[C@H]1O[C@@H](n2ncc3c(N[C@@H]4CCc5cc(F)ccc54)nc(Cl)nc32)[C@H](O)[C@@H]1O)P(=O)(O)O [Example 122, ((R)-2-(((2R,3S,4R,5R)-5-(6-chloro-4-(((R)-5-fluoro-2,3-dihydro-1H-inden-1-yl)amino)-1H-pyrazolo[3,4-d]pyrimidin-1-yl)-3,4-dihydroxytetrahydrofuran-2-yl)methoxy)-1-hydroxypropan-2-yl)phosphonic acid] | ≤ 100

Reference: US11325938B2, “CD73 inhibitors” (ORIC Pharmaceuticals, Inc., priority 2018, dated 2022)
